Literature values, collected in patent publication US20210000953A1, “USE OF IMMUNE CHECKPOINT INHIBITORS IN CENTRAL NERVOUS SYSTEMS NEOPLASMS” (Bristol-Myers Squibb Company, priority 2014, published 2021).

Columns and labels:
[1] = tested on: recurrent GBM; conditions: single agent, relapsed setting; cited from earlier work
[2] = in vivo; cited from earlier work
[3] = tested on: previously treated GBM; conditions: AVF3708g, cited from earlier work
[4] = tested on: newly diagnosed GBM; conditions: cited from earlier work
[5] = tested on: previously treated gliomas; conditions: NCI 06-C-0064E, cited from earlier work

Molecule: CCc1c2c(nc3ccc(OC(=O)N4CCC(N5CCCCC5)CC4)cc13)-c1cc3c(c(=O)n1C2)COC(=O)[C@]3(O)CC [irinotecan]
- Response rates [1]: ≤ 15%

Molecule: Cn1nnc2c(C(N)=O)ncn2c1=O [temozolomide]
- Terminal half-life [2]: 1.2 h

Molecule: bevacizumab
- Responses, % of patients ([3]; WHO radiographic criteria, 95% CI:17.0%, 36.1%): 25.9%
- Median duration of response ([3]; 95% CI: 3.0, 5.7 months): 4.2 months
- Cognitive function and quality of life ([4]; in vivo): reduced cognitive function and quality of life
- Overall survival ([4]; newly diagnosed GBM, above standard of care (radiotherapy plus temozolomide)): does not significantly increase overall survival
- Progression-free survival ([4]; newly diagnosed GBM, with radiotherapy plus temozolomide): increases progression-free survival
- Objective responses ([5]; 56 patients with high-grade glioma, 95% CI, 10.9%, 31.3%): 19.6%
- Median duration of response ([5]; 95% CI: 2.4, 17.4): 3.9 months
